Assay results as given in PMC5701749 (Biochemistry, 2017).
Several values for one entry are separate records, joined by “and”; a condition that tells them apart may be missing. Equal entries are not always repeated. Where two headings read alike, the source gives them in different places.

Experiments:
[1] = target: T1, mouse P-gp mdr1a (Mus musculus, UniProt P21447); conditions: DMPC nanodiscs; for V2 (rate of ATP hydrolysis at infinite substrate concentration): footnote a = parameter reaching constraint set at >0; for K1 (substrate concentration for half-maximal stimulation of ATPase activity): footnote d = ambiguous, lack of ATPase stimulation
[2] = target: T2, murine P-gp (Mus musculus, UniProt P21447); conditions: for displacement of BD-verapamil from P-gp (in words) / displacement of BD-vinblastine from P-gp (in words): FCS competition; for n (Hill coefficient): drug displacing BD-vinblastine from P-gp nanodiscs
[3] = target: T2, murine P-gp; experiment: biochemical
[4] = target: T2, murine P-gp
[5] = target: T1, mouse P-gp mdr1a; conditions: E. coli lipid nanodiscs; for V1 (maximal rate of ATP hydrolysis when there is only activation): footnote b = parameter held constant
[6] = FCS binding of fluorescent probes to empty nanodiscs; conditions: ND = not determined because of minimal binding
[7] = target: T2, murine P-gp; format: biochemical; conditions: inside-out murine P-gp vesicles, ATP-dependent, 117 nM Flutax-2, 37 °C
[8] = target: mouse P-gp (Mus musculus, UniProt P21447); experiment: ATPase assay in mouse P-gp vesicles; format: biochemical; conditions: concentration range studied
[9] = ATP and Vi (1 mM ATP, 240 μM Vi), vanadate-trapped, apparent KD
[10] = apo (control), nucleotide-free, apparent KD, high-affinity site

T2 sequence (P21447 whole entry): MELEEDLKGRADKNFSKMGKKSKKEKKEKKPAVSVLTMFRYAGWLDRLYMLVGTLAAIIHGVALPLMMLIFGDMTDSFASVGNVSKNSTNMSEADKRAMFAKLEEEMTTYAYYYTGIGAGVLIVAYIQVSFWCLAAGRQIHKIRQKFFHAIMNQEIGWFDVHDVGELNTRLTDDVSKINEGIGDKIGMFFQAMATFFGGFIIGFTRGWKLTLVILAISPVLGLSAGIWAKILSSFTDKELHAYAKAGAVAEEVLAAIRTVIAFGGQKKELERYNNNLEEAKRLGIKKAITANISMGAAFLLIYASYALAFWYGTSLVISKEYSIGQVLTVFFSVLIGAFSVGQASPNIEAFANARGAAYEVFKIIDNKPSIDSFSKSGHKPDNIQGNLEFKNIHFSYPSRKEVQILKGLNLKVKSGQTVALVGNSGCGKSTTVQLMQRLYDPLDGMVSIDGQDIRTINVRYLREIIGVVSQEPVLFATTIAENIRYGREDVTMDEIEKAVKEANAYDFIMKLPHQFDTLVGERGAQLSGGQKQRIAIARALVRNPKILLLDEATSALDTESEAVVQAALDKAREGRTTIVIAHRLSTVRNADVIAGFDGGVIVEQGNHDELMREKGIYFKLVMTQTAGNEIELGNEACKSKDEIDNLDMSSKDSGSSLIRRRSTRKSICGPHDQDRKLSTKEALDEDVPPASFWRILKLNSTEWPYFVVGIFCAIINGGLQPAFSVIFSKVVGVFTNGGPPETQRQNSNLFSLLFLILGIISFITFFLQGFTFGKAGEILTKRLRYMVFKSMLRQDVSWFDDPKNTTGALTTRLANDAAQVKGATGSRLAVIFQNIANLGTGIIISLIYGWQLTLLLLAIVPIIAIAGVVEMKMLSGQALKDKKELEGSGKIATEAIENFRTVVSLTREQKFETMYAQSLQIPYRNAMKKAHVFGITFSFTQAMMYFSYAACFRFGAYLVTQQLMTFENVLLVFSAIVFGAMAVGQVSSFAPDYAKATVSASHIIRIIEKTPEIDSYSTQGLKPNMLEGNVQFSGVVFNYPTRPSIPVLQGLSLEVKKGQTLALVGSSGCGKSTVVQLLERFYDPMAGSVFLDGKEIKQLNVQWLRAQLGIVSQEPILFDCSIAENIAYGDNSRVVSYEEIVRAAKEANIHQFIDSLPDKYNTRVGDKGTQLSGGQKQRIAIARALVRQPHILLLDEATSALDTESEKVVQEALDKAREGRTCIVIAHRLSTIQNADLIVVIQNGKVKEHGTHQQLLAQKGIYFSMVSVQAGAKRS
T1 sequence (P21447 whole entry): as above
Sequence of mouse P-gp (P21447 whole entry): as above

| K1 (substrate concentration for half-maximal stimulation of ATPase activity) [1] | displacement of BD-verapamil from P-gp (in words) [2] | displacement of BD-vinblastine from P-gp (in words) [2] | n (Hill coefficient) [2] | Compound | V2 (rate of ATP hydrolysis at infinite substrate concentration) [1] | Kd ([4]; AMP-PNP (1 mM), apparent KD) [nM] | Kd [4, 9] [nM] | Kd [4, 10] [nM] | V2 (rate of ATP hydrolysis at infinite substrate concentration) [5] | stimulation of ATPase activity (in words) [5] | V1 (maximal rate of ATP hydrolysis when there is only activation) [5] | Kd [6] | also measured |
| --- | --- | --- | --- | --- | --- | --- | --- | --- | --- | --- | --- | --- | --- |
| 2.6 ± 1.0 µM | displaced | displaced | 0.4± 0.1 | CC[C@]1(O)C[C@@H]2CN(CCc3c([nH]c4ccccc34)[C@@](C(=O)OC)(c3cc4c(cc3OC)N(C)[C@H]3[C@@](O)(C(=O)OC)[C@H](OC(C)=O)[C@]5(CC)C=CCN6CC[C@]43[C@@H]65)C2)C1 [vinblastine] | >0 ^a nmol of Pi min^−1 mg^−1 |  |  |  |  |  |  |  | IC50 [3]: 17500 ± 11000 nM |
|  |  |  |  | BODIPY vinblastine [BD-vinblastine] | 21 ± 4 nmol of Pi min^−1 mg^−1 | 83 ± 12 | 290 ± 40 | 42 ± 6 | 156.5 ± 24.8 nmol of Pi min^−1 mg^−1 | Neither BD-vinblastine or Flutax-2 stimulated ATPase activity | 465 ^b nmol of Pi min^−1 mg^−1 | 1700 nM and 1670 nM | increase in KD (decrease in affinity) with AMP-PNP ([4]; AMP-PNP vs nucleotide-free): 1.9 fold and 2 fold; increase in KD (decrease in affinity) in vanadate-trapped state ([4]; ATP and Vi vs nucleotide-free): 6.8 fold; stimulation of ATP hydrolysis over basal ATPase activity [1]: ~ 2 fold |
|  |  |  |  | BODIPY FL verapamil [BD-verapamil] |  |  |  |  |  |  |  |  | KD [6]: negligible binding |
| 1.3 ± 0.5 µM | did not displace | displaced | 0.5 ± 0.5 | CC(=O)O[C@H]1C(=O)[C@@]2(C)[C@H]([C@H](OC(=O)c3ccccc3)[C@]3(O)C[C@H](OC(=O)[C@H](O)[C@@H](NC(=O)c4ccccc4)c4ccccc4)C(C)=C1C3(C)C)[C@]1(OC(C)=O)CO[C@@H]1C[C@@H]2O [paclitaxel] | 48 ± 6 nmol of Pi min^−1 mg^−1 |  |  |  |  |  |  |  |  |

| Compound | K1 (substrate concentration for half-maximal stimulation of ATPase activity) [1] | displacement of BD-verapamil from P-gp (in words) [2] | displacement of BD-vinblastine from P-gp (in words) [2] | n (Hill coefficient) [2] | V2 (rate of ATP hydrolysis at infinite substrate concentration) [1] | Kd ([4]; AMP-PNP (1 mM), apparent KD) [nM] | Kd [4, 9] [nM] | Kd [4, 10] [nM] | V2 (rate of ATP hydrolysis at infinite substrate concentration) [5] | stimulation of ATPase activity (in words) [5] | V1 (maximal rate of ATP hydrolysis when there is only activation) [5] | Kd [6] | also measured |
| --- | --- | --- | --- | --- | --- | --- | --- | --- | --- | --- | --- | --- | --- |
| Oregon Green 488 Paclitaxel [Flutax-2] | 0.3 ± 0.7 ^d μM |  |  |  | 18 ± 2 nmol of Pi min^−1 mg^−1 | 530 ± 90 | 490 ± 80 | 520 ± 90 | 33.2 ± 46.8 nmol of Pi min^−1 mg^−1 | no stimulation | 500 ^b nmol of Pi min^−1 mg^−1 | 3600 nM and 3630 nM | initial transport rate [7]: ~42 pmol (mg of total protein)^−1 min^−1; Kd ([4]; nucleotide-free, high-affinity interaction): 519 nM; stimulation of ATPase activity (in words) [1]: does not stimulate ATPase activity; stimulation of ATPase activity (in words) [8]: did not stimulate ATPase activity; K1 (substrate concentration for half-maximal stimulation of ATPase activity) ([5]; footnote d = ambiguous, lack of ATPase stimulation): 0.2 ± 0.3 ^d μM |
